The record followed here is patent US7144901B2, “Oxadiazole derivatives and drugs containing these derivatives as the active ingredient” (ONO Pharmaceutical Co.,Ltd., priority 1999, dated 2006).

Usually inhibition stands for the drop in the measured response relative to a control, in per cent. Higher therefore signals a strong effect. What is called pKi is the negative decadic logarithm of the Ki, by convention in mol/L.

Format in all cases: biochemical
One experiment addresses cathepsin L (Homo sapiens, UniProt P07711). The experiment is described as follows: Measurement of cathepsin L inhibitory activity. The protocol:
(iv) Measurement of Cathepsin L Inhibitory Activity
5 μL of Synthesized substrate (carbobenzoxy-L-phenylalanyl-L-arguine-4-methyl-chromanyl-7-amide or L-prolyl-L-phenylalanyl-L-arguinine-4-methyl-chromanyl-7-amide) solution and 5 μL of cysteine protease inhibitor solution of several concentrations, 80 μL of cathepsin L enzyme reaction buffer (400 mmol/L acetic acid, 4 mmol/L EDTA, 8 mmol/L DTT were mixed to adjust to pH 5.5) and 10 μL of cathepsin L enzyme solution were mixed and the increase of fluorescence intensity was measured (λex (excitation wavelength)=355 nm, λem (fluorescence wavelength)=460 nm) when reacted at 37° C.

Another experiment deals with cathepsin B (Homo sapiens, UniProt P07858). The experiment is described as follows: Measurement of cathepsin B inhibitory activity. The protocol:
(ii) Measurement of Cathepsin B Inhibitory Activity
10 μL of Synthesized substrate (carbobenzoxy-L-arginyl-L-arginine-4-methyl-chromanyl-7-amide or carbobenzoxy-L-phenylalanyl-L-arginine-4-methyl-chromanyl-7-amide) solution of several concentrations, 10 μL of cysteine protease inhibitor solution of several concentrations, 70 μL of cathepsin B enzyme reaction buffer (mixture of 400 mmol/L in acetic acid, 4 mmol/L EDTA, 8 mmol/L DDT to adjust to pH 5.5) and 10 μL of cathepsin B enzyme solution were mixed and the increase of fluorescence intensity was measured (λex (excitation wavelength)=355 nm, λem (fluorescence wavelength)=460 nm) when reacted at 37° C.

A further experiment addresses cathepsin S (Homo sapiens, UniProt P25774). The experiment is described as follows: Measurement of cathepsin S inhibitory activity. The protocol:
(iii) Measurement of Cathepsin S Inhibitory Activity
10 μL of synthesized substrate (carbobenzoxy-L-leucyl-L-leucyl-L-arguinine-4-methyl-chromanyl-7-amide) solution and 5 μL of cysteine protease inhibitor solution of several concentrations, 75 μL of cathepsin S enzyme reaction buffer (100 mmol/L of sodium phosphate, 2 mmol/L of EDTA, 2 mmol/L of DTT were mixed to adjust to pH 6.5) and 10 μL of cathepsin S enzyme solution were mixed and the increase of fluorescence intensity was measured (λex (excitation wavelength)=355 nm, λem (fluorescence wavelength)=460 nm) when reacted at 37° C.

The target in another experiment is T1, cathepsin K (Homo sapiens, UniProt P43235).
T1 sequence (P43235 115-329): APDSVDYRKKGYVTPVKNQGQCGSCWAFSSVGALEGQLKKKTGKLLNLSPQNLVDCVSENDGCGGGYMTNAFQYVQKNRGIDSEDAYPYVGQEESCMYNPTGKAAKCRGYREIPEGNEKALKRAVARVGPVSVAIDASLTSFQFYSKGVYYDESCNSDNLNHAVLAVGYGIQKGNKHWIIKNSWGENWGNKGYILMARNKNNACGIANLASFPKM
The experiment is described as follows: Measurement of cathepsin K inhibitory activity. The settings on record: Dixon plot, fluorogenic substrate, pH 5.5, 37° C. The protocol:
(i) Measurement of Cathepsin K Inhibitory Activity
65 μL of Cathepsin K enzyme reaction buffer (50 mmol/L of 2-(N-morpholino)ethanesulfonate, 2 mmol/L of ethylenediamine tetraacetate (EDTA) and 4 mmol/L of dithiothreitol (DTT) were mixed to adjust to pH 5.5), 5 μL of cysteine protease inhibitor solution of several concentrations, 20 μL of synthesized substrate (t-butyloxycarbonyl-L-alanyl-glycyl-L-prolyl-L-arginine-4-methyl-chromanyl-7-amide) solution of several concentrations and 10 μL of cathepsin K enzyme solution were mixed and the increase of fluorescence intensity when reacted at 37° C. was measured (λex (excitation wavelength)=355 nm, λem (fluorescence wavelength)=460 nm). As to the substrate and the compound of the present invention, enzyme reactions were carried out in combination of several appropriate concentrations and Dixon plotting was prepared, to define the absolute value of X-coordinate of the intersection point of the graph as Ki value.

Structures are written as SMILES. pKi: −log10 of the molar value.

Sequence of cathepsin L (P07711 114-333, species assumed): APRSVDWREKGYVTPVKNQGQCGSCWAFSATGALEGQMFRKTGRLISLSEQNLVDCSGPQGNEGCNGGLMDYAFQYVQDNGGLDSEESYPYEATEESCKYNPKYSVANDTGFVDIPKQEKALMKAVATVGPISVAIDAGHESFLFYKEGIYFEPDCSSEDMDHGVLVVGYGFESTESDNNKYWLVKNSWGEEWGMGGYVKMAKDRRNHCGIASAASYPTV
Sequence of cathepsin S (P25774 115-331, species assumed): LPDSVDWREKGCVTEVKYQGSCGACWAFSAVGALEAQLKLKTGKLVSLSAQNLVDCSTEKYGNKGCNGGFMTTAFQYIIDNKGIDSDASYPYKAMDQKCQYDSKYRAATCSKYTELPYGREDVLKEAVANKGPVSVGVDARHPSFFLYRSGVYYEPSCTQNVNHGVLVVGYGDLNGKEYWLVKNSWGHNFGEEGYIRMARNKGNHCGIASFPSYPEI

In turn, `CC(C)C[C@H](NC(=O)OCc1ccccc1)C(=O)N[C@@H](CC(C)C)C(=O)c1nn(CC2CCC2)c(=O)o1` [1 (21), (2S)-N-[(2S)-1-(3-cyclobutylmethyl-2-oxo-1,3,4-oxadiazolin-5-yl)-4-methyl-1-oxo-2-pentyl]-2-benzyloxycarbonylamino-4-methylpentanamide] returned an inhibition at 1 µM on cathepsin L of 92%.

On to `CC(C)C[C@H](NC(=O)[C@@H]1CCCC[C@@H]1NC(=O)c1ccccc1)C(=O)c1nnc(SCc2ccccc2)o1` [3 (5), 1-[(1R,2S)-2-benzoylaminocyclohexyl]-N-[(2S)-1-(5-benzylthio-1,3,4-oxadiazol-2-yl)-4-methyl-1-oxo-2-pentyl]carboxamide], for which testing at 1 µM against cathepsin B gave an inhibition of 100%.

Compound `CSc1nnc(C(=O)[C@H](CCc2ccccc2)NC(=O)[C@@H]2CCCC[C@@H]2NC(=O)c2ccccc2)o1` [3 (7), 1-[(1R,2S)-2-benzoylaminocyclohexyl]-N-[(2S)-1-(5-methylthio-1,3,4-oxadiazol-2-yl)-1-oxo-4-phenyl-2-butyl]carboxamide] returned an inhibition at 1 µM against cathepsin S of 100%.

As to `CC(C)C[C@H](NC(=O)OCc1ccccc1)C(=O)N[C@@H](CC(C)C)C(=O)c1nnc(SC(C)C)o1` [example 3], at cathepsin K, the pKi is 8.89.
